Patent US9328122B2, “7-substituted Hanfangichin B derivative, and preparation method and use thereof” (HANGZHOU BENSHENG PHARMACEUTICAL CO., LTD., priority 2012, dated 2016)
≈ marks a conversion by molar mass, not a printed value.

Experiments:
[1] = tested on: PC-3 (prostate cancer) cells; test: MTT cell growth inhibition, solid tumor cells; format: cell-based, human; details: Homo sapiens, PC-3, 72 h, MTT; for IC50: read-out: IC50; for IC90: read-out: IC90
Excerpt: (§1) Hep-2 (laryngeal carcinoma), A549 (human lung cancer), CaES-17 (esophageal cancer cell), PC-3 (prostate cancer), CNE (nasopharyngeal carcinoma cell) and SK-OV-3 (ovarian cancer cell), all of which were purchased from China Center For Type Culture Collection; RKO (human colon adenocarcinoma cell), MGC-803 (human gastric cancer cell), MG-63 (osteosarcoma), and U87-MG (malignant glioma cell), all of which were purchased from Fuxiang Bio-tech Co. Ltd., Shanghai, China; PANC-1 (pancreatic cancer), Becap37 (human breast cancer cell), Hela (human cervical cancer cell) and Hep G2 (human liver cancer cell), all of which were donated by Cancer Research Institute of Zhejiang University, China.
(§2) 6000 well-growing human solid tumor cells were obtained and inoculated into wells of a 96-well cell culture plate. The culture medium was DMEM High Glucose cell culture medium containing 10% fetal bovine serum. The plate was placed in a carbon dioxide cell incubator (5% CO2) at 37° C. and incubated for 24 hours. After added with 7-substituted fangchinoline derivatives of different concentration and mixing uniformly, the plate was placed in a carbon dioxide cell incubator (5% CO2) at 37° C. and incubated for 72 hours. Then the viable cell concentration was determined by the MTT method.

[2] = tested on: SK-OV-3 (ovarian cancer) cells; test: MTT cell growth inhibition, solid tumor cells; format: cell-based, human; details: Homo sapiens, SK-OV-3, 72 h, MTT; for IC50: read-out: IC50; for IC90: read-out: IC90
Excerpt: as §1, §2

[3] = tested on: PANC-1 (pancreatic cancer) cells; test: MTT cell growth inhibition, solid tumor cells; format: cell-based, human; details: Homo sapiens, PANC-1, 72 h, MTT; for IC50: read-out: IC50; for IC90: read-out: IC90
Excerpt: as §1, §2

[4] = tested on: CaEs-17 (esophageal cancer) cells; test: MTT cell growth inhibition, solid tumor cells; format: cell-based, human; details: Homo sapiens, CaEs17, CaEs-17, 72 h, MTT; for IC50: read-out: IC50; for IC90: read-out: IC90
Excerpt: as §1, §2

[5] = tested on: CNE (nasopharyngeal carcinoma) cells; test: MTT cell growth inhibition, solid tumor cells; format: cell-based, human; details: Homo sapiens, CNE, 72 h, MTT; for IC50: read-out: IC50; for IC90: read-out: IC90
Excerpt: as §1, §2

[6] = tested on: RPMI 8226 (multiple myeloma) cells; test: MTT cell growth inhibition, multiple myeloma cells; format: cell-based, human; details: Homo sapiens, RPMI 8226, 72 h, MTT; for IC50: read-out: IC50; for IC90: read-out: IC90
Description: Myeloma cell lines: RPMI8226 (multiple myeloma), purchased from Fuxiang Bio-tech Co. Ltd., Shanghai, China.
(§3) 6000 well-growing cells were obtained and inoculated into wells of a 96-well cell culture plate. The culture medium was a RPMI-1640 cell culture medium containing 10% fetal bovine serum. After adding the 7-substituted fangchinoline derivatives of different concentrations the next day and mixing uniformly, the plate was placed in a carbon dioxide cell incubator (5% CO2) at 37° C. and incubated for 72 hours. Then the viable cell concentration was determined by the MTT method.

tumor = test: Antitumor activity compared with fangchinoline, overall statement; format: cell-based; details: tumor type not specified
[7] = tested on: NB4 (acute promyelocytic leukemia) cells; test: MTT cell growth inhibition, leukemia cells; format: cell-based; details: Homo sapiens, NB4, 72 h, MTT; for IC50: read-out: IC50; for IC90: read-out: IC90
Excerpt: (§4) Leukemia cell lines: leukemia cell lines: K562adr (drug-resistant, chronic myeloid leukemia, CML), NB4 (acute promyelocytic leukemia, AML), Kasumi-1 (acute myeloid leukemia M2 type, AML-M2), Jurkat (acute lymphoblastic leukemia, ALL), all of which were donated by Cancer Research Institute of Zhejiang University, China; and H9 (acute lymphoblastic leukemia, ALL), which was purchased from China Center for Type Culture Collection.
(§5) Reagents: The standard sample of fangchinoline (FAN) was purchased from Ci Yuan Biotechnology Co., Ltd., Shaanxi, China; and the 7-substituted fangchinoline derivatives according to the present invention.
as §3, with “well-growing leukemia” for “well-growing”, “incubating” for “incubated”

[8] = tested on: K562/ADR (K562adr, drug-resistant chronic myeloid leukemia) cells; test: MTT cell growth inhibition, leukemia cells; format: cell-based; details: Homo sapiens, K562/ADR, 72 h, MTT; for IC50: read-out: IC50; for IC90: read-out: IC90
Excerpt: as §4, §5
as §3, with “well-growing leukemia” for “well-growing”, “incubating” for “incubated”

[9] = tested on: U87-MG (malignant glioma) cells; test: MTT cell growth inhibition, solid tumor cells; format: cell-based; details: Homo sapiens, U-87 MG, U87-MG, 72 h, MTT; for IC50: read-out: IC50; for IC90: read-out: IC90
Excerpt: as §1, §2

[10] = tested on: Hela (human cervical cancer) cells; test: MTT cell growth inhibition, solid tumor cells; format: cell-based; details: Homo sapiens, Hela, 72 h, MTT; for IC50: read-out: IC50; for IC90: read-out: IC90
Excerpt: as §1, §2

[11] = tested on: MG-63 (osteosarcoma) cells; test: MTT cell growth inhibition, solid tumor cells; format: cell-based; details: Homo sapiens, MG-63, 72 h, MTT; for IC50: read-out: IC50; for IC90: read-out: IC90
Excerpt: as §1, §2

[12] = tested on: RKO (human colon adenocarcinoma) cells; test: MTT cell growth inhibition, solid tumor cells; format: cell-based; details: Homo sapiens, RKO, 72 h, MTT; for IC50: read-out: IC50; for IC90: read-out: IC90
Excerpt: as §1, §2

[13] = tested on: Hep-2 (laryngeal carcinoma) cells; test: MTT cell growth inhibition, solid tumor cells; format: cell-based; details: Homo sapiens, Hep-2, 72 h, MTT; for IC50: read-out: IC50; for IC90: read-out: IC90
Excerpt: as §1, §2

[14] = tested on: A549 (human lung cancer) cells; test: MTT cell growth inhibition, solid tumor cells; format: cell-based; details: Homo sapiens, A549, 72 h, MTT; for IC50: read-out: IC50; for IC90: read-out: IC90
Excerpt: as §1, §2

[15] = tested on: Hep G2 (human liver cancer) cells; test: MTT cell growth inhibition, solid tumor cells; format: cell-based; details: Homo sapiens, HepG2, Hep G2, 72 h, MTT; for IC50: read-out: IC50; for IC90: read-out: IC90
Excerpt: as §1, §2

[16] = tested on: Becap-37 (human breast cancer) cells; test: MTT cell growth inhibition, solid tumor cells; format: cell-based; details: Homo sapiens, Becap-37, 72 h, MTT; for IC50: read-out: IC50; for IC90: read-out: IC90
Excerpt: as §1, §2

[17] = tested on: MGC-803 (human gastric cancer) cells; test: MTT cell growth inhibition, solid tumor cells; format: cell-based; details: MGC-803, 72 h, MTT; for IC50: read-out: IC50; for IC90: read-out: IC90
Excerpt: as §1, §2

Compound | IC50 [1] [µg/mL] | IC90 [1] [µg/mL] | IC50 [2] [µg/mL] | IC90 [2] [µg/mL] | IC50 [3] [µg/mL] | IC90 [3] [µg/mL] | IC50 [4] [µg/mL] | IC90 [4] [µg/mL] | IC50 [5] [µg/mL] | IC90 [5] [µg/mL] | IC50 [6] [µg/mL] | IC90 [6] [µg/mL] | antitumor activity compared with that of fangchinoline (tumor) | IC50 [7] [µg/mL] | IC90 [7] [µg/mL] | IC50 [8] [µg/mL] | IC90 [8] [µg/mL] | IC50 [9] [µg/mL] | IC90 [9] [µg/mL] | IC50 [10] [µg/mL] | also measured
COc1ccc2cc1Oc1ccc(cc1)C[C@H]1c3cc(c(OC)cc3CCN1C)Oc1c(OC3CCCC3)c(OC)cc3c1[C@H](C2)N(C)CC3 [BS-FC-220] | 4.55 (≈ 6.72 µM) | 7.61 (≈ 11.2 µM) | 5.41 (≈ 7.99 µM) | 14.2 (≈ 21.1 µM) | 2.79 (≈ 4.12 µM) | 7.68 (≈ 11.3 µM) | 2.6 (≈ 3.84 µM) | 9.32 (≈ 13.8 µM) | 3.2 (≈ 4.73 µM) | 7.6 (≈ 11.2 µM) | 0.12 (≈ 0.177 µM) | 0.5 (≈ 0.739 µM) | significantly superior | 0.66 (≈ 0.975 µM) | 3.16 (≈ 4.67 µM) | 0.43 (≈ 0.635 µM) | 4 (≈ 5.91 µM) | 2.28 (≈ 3.37 µM) | 7.03 (≈ 10.4 µM) | 1.43 (≈ 2.11 µM) | IC90 [10]: 3.71 µg/mL (≈ 5.48 µM); IC50 [11]: 2.8 µg/mL (≈ 4.14 µM); IC90 [11]: 3.6 µg/mL (≈ 5.32 µM); IC50 [12]: 1.25 µg/mL (≈ 1.85 µM); IC90 [12]: 3.73 µg/mL (≈ 5.51 µM); IC50 [13]: 4.2 µg/mL (≈ 6.21 µM); IC90 [13]: 10.3 µg/mL (≈ 15.2 µM); IC50 [14]: 2.55 µg/mL (≈ 3.77 µM); IC90 [14]: 4.97 µg/mL (≈ 7.34 µM); IC50 [15]: 2.37 µg/mL (≈ 3.5 µM); IC90 [15]: 7.01 µg/mL (≈ 10.4 µM); IC50 [16]: 3.19 µg/mL (≈ 4.71 µM); IC90 [16]: 6.1 µg/mL (≈ 9.01 µM); IC50 [17]: 1.4 µg/mL (≈ 2.07 µM); IC90 [17]: 3.96 µg/mL (≈ 5.85 µM)
C=C(C)COc1c(OC)cc2c3c1Oc1cc4c(cc1OC)CCN(C)[C@H]4Cc1ccc(cc1)Oc1cc(ccc1OC)C[C@@H]3N(C)CC2 [BS-FC-221] | 3 (≈ 4.53 µM) | 5.46 (≈ 8.24 µM) | 2.38 (≈ 3.59 µM) | 3.94 (≈ 5.94 µM) | 1.42 (≈ 2.14 µM) | 4.65 (≈ 7.02 µM) | 1.53 (≈ 2.31 µM) | 5.6 (≈ 8.45 µM) | 1.8 (≈ 2.72 µM) | 3.8 (≈ 5.73 µM) | 0.11 (≈ 0.166 µM) | 0.46 (≈ 0.694 µM) | significantly superior | 0.57 (≈ 0.86 µM) | 1.88 (≈ 2.84 µM) | 0.33 (≈ 0.498 µM) | 1.31 (≈ 1.98 µM) | 1.13 (≈ 1.7 µM) | 4.5 (≈ 6.79 µM) | 0.71 (≈ 1.07 µM) | IC90 [10]: 1.9 µg/mL (≈ 2.87 µM); IC50 [11]: 0.8 µg/mL (≈ 1.21 µM); IC90 [11]: 1.9 µg/mL (≈ 2.87 µM); IC50 [12]: 1.37 µg/mL (≈ 2.07 µM); IC90 [12]: 2.76 µg/mL (≈ 4.16 µM); IC50 [13]: 1.9 µg/mL (≈ 2.87 µM); IC90 [13]: 5.78 µg/mL (≈ 8.72 µM); IC50 [14]: 1.2 µg/mL (≈ 1.81 µM); IC90 [14]: 3.18 µg/mL (≈ 4.8 µM); IC50 [15]: 1.48 µg/mL (≈ 2.23 µM); IC90 [15]: 4.37 µg/mL (≈ 6.59 µM); IC50 [16]: 1.91 µg/mL (≈ 2.88 µM); IC90 [16]: 3.86 µg/mL (≈ 5.82 µM); IC50 [17]: 1.19 µg/mL (≈ 1.8 µM); IC90 [17]: 3.93 µg/mL (≈ 5.93 µM)
